Key:
[1] = tested on: knee joint tissue of the hind leg, CII-induced RA; assay: Histopathologic analysis of knee joint tissue of the hind leg, collagen-induced RA; type: in vivo, DBA/1 mice; conditions: mice; for morphological observation of cartilage structure and surface: knee joint of hind leg after day 42, data not shown
Protocol: (§1) 2 mg/mL of a Chick type II collagen (CII) solution (Chondrex Inc., Cat. No. 20012) (in 10 mM acetic acid) was mixed with complete Freund's adjuvant (Sigma Aldrich, Cat. No. F5881-10ML) at a ratio of 1:1 (v/v), so as to obtain a first CII emulsion. 2 mg/mL of a Chick type CII solution was mixed with incomplete Freund's adjuvant (ChemCruzx, Cat. No. sc-24648) at a ratio of 1:1 (v/v), so as to obtain a second CII emulsion.
(§2) The female DBA/1 mice were divided into five groups, including one normal control group, one pathological control group, one comparative group, and two experimental groups (i.e., experimental groups 1 to 2) (n=6 mice in each group). 200 μL of the first CII emulsion was injected subcutaneously into the tail of the respective mouse of the pathological control group, the comparative group, and the two experimental groups. The mice were subjected to a boost injection using 200 μL of the second CII emulsion on the 21st day after the initial immunization, so as to induce the occurrence of RA. In addition, the rats of the normal control group were injected with an adjuvant solution (in PBS).
(§3) After completion of the boost injection, the respective mouse in the comparative group was intraperitoneally injected with 100 μL of 1% HA, the respective mouse in the experimental group 1 was intraperitoneally injected with 100 μL of the EGF solution (containing 20 μg/g EGF) prepared in section C of Example 1, the respective mouse in the experimental group 2 was intraperitoneally injected with 100 μL of the mixture solution (containing 20 μg/g EGF) prepared in section C of Example 1. Each mouse was administered once daily for a total period of 20 days.
(§4) After completion of the evaluation of RA severity as described in section C of this example, the mice in each group were sacrificed by virtue of 95% CO2 asphyxiation, and the knee joint tissue of the hind leg and the sole tissue were obtained from each mouse carcass. The knee joint tissue of the hind leg of each mouse was subjected to histological sectioning, hematoxylin-eosin staining, and microscopic observation in sequence according to the methods described in section F of Example 1.
Next, the pathological symptoms (i.e., inflammatory cell infiltration, synovial hyperplasia, and cartilage surface erosion) in the respective tissue section was assessed according to the method described in Deng G. M. et al. (2005), Nat Med., 11:1066-1072. The degrees of inflammatory cell infiltration, synovial hyperplasia, and cartilage surface erosion were scored on a scale from 1 to 4. The higher the scale, the higher the severity of the pathological symptom is.
The data thus obtained were analyzed according to the method described in section 1 of the “General Procedures”.

[2] = tested on: TNF-α, IL-1β, IL-6, IL-17A, IFN-γ and IL-8 in sole tissue, CII-induced RA; assay: Inflammatory markers in sole tissue (ELISA), collagen-induced RA; type: in vivo, DBA/1 mice; conditions: mouse sole tissue
Protocol: as §1, §2, §3, §4
100 mg of the sole tissue of each mouse obtained in section D of this example was subjected to a freezing treatment with liquid nitrogen, followed by grinding. The resultant ground tissue was mixed with 1 mL of a tissue lysis buffer (Gold Biotechnology, Inc., Cat. No. GB-181-100) (containing protease inhibitor cocktail), followed by determining the contents of TNF-α, IL-1β, IL-6, IL-17A, IFN-γ, and IL-8 respectively using a TNF-α ELISA kit (BioLegend, Cat. No. 430904), an IL-1β ELISA kit (BioLegend, Cat. No. 432604), an IL-6 ELISA kit (BioLegend, Cat. No. 431304), an IL-17A ELISA kit (BioLegend, Cat. No. 432504), an IFN-γ ELISA kit (BioLegend, Cat. No. 430807), and an IL-8 ELISA kit (MyBioSource, Cat. No. MBS261967) in accordance with the manufacturer's instructions.
The data thus obtained were analyzed according to the method described in section 1 of “General Procedures”.

Row | Substance | morphological observation of cartilage structure and surface [1] | scale of cartilage surface erosion (scale 1 to 4) ([1]; knee joint of hind leg, FIG. 7) | scale of inflammatory cell infiltration (scale 1 to 4) ([1]; knee joint of hind leg, FIG. 7) | scale of synovial hyperplasia (scale 1 to 4) ([1]; knee joint of hind leg, FIG. 7) | content of IL-1β ([2]; FIG. 8) | content of IL-6 ([2]; FIG. 8) | content of TNF-α ([2]; FIG. 8) | content of IFN-γ ([2]; FIG. 9) | content of IL-8 ([2]; FIG. 9) | content of IL-17A ([2]; FIG. 9)
1 | hyaluronic acid [HA, reference compound] | the cartilage structure was partially damaged, and a partially intact cartilage surface was observed | – | – | – | – | – | – | – | – | –
2 | EGF: Epidermal growth factor (Cat. No. 02-108, Joycom Bio-chem) dissolved in PBS, 20 μg/g EGF; given to experimental group 1 (NSDSECPLSHDGYCLHDGVCMYIEALDKYACNCVVGYIGERCQYRDLKWWELR; UniProt P01133 971-1023, looked up) | the cartilage structure was partially damaged, and a partially intact cartilage surface was observed | apparently or significantly lower than those determined in the pathological control group | apparently or significantly lower than those determined in the pathological control group | apparently or significantly lower than those determined in the pathological control group | apparently or significantly lower than those determined in the pathological control group | apparently or significantly lower than those determined in the pathological control group | apparently or significantly lower than those determined in the pathological control group | apparently or significantly lower than those determined in the pathological control group | apparently or significantly lower than those determined in the pathological control group | apparently or significantly lower than those determined in the pathological control group

— patent publication US20230149510A1, “METHOD FOR ALLEVIATING ARTHRITIS USING EPIDERMAL GROWTH FACTOR” (Lovin BioMed Co., Ltd., priority 2021, published 2023)
